Measured values published in patent US8187802B2, “Cell lines useful for assessing modulation of autophagy” (Rutgers, The State University of New Jersey, priority 2008, dated 2012).
Entries after “also recorded” stand apart in the source; their conditions may differ.

How the values were obtained:
Assay type in all cases: cell-based, mouse
[1] = tested on: Bcl-2 expressing beclin1^+/+ and beclin1^+/− iBMK cells; assay: Survival during metabolic stress and recovery without and with ROS scavenger (time-lapse images, adherent cells); details: NAC 1 mM, 5 days of metabolic stress
Text: (§1) FIG. 5 illustrates effects of metabolic stress in promoting elevated ROS production and chromosomal instability in autophagy-deficient cells. (A) Autophagy-deficiency leads to elevated ROS production. Overlays show ROS levels in Bcl-2 expressing beclin1^+/+ (Green) and beclin1^+/− iBMK cells (Blue) (x-axis, log scale) under normal growth (0 Di) and at 0.5, 1, 2.5 and 24 hr (beclin1^+/+, green arrows and beclin1^+/−, red arrows) during recovery (0.5-24 hR) from 5 days of metabolic stress (5 Di) by flow-cytometry using the ROS sensor DCF-DA. The ROS levels in untreated cells are shown in dotted lines for comparison. (B) Representative histogram from three independent experiments measuring the mean ROS levels in Bcl-2 expressing beclin1^+/+ and beclin1^+/− iBMK cells shown in (A). […] Representative time-lapse images of Bcl-2 expressing beclin1^+/+ and beclin1^+/− iBMK cells during recovery following 5 days of metabolic stress in presence (NAC) and absence (UT) of the ROS scavenger NAC (1 mM) (relative percentage of adherent cells compared to time 0 is shown). […] Western blot analysis of p62 levels in Bcl-2 expressing beclin1^+/+, beclin1^+/−, atg5^+/+ and atg5^−/− iBMK cell lines following 0 or 7 days of metabolic stress followed by 1 day recovery without and with NAC. […] Numbers represent passage numbers at which ploidy was determined. […]

[2] = tested on: p62; assay: Western blot analysis of p62 levels after metabolic stress without and with NAC
Text: as §1

[3] = tested on: diploid beclin1^+/+ and beclin1^+/− iBMK cells; assay: Flow-cytometry analysis of DNA content (progression to aneuploidy) over passages without and with NAC; details: NAC 1 mM
Text: FIG. 5 illustrates effects of metabolic stress in promoting elevated ROS production and chromosomal instability in autophagy-deficient cells. (A) Autophagy-deficiency leads to elevated ROS production. Overlays show ROS levels in Bcl-2 expressing beclin1^+/+ (Green) and beclin1^+/− iBMK cells (Blue) (x-axis, log scale) under normal growth (0 Di) and at 0.5, 1, 2.5 and 24 hr (beclin1^+/+, green arrows and beclin1^+/−, red arrows) during recovery (0.5-24 hR) from 5 days of metabolic stress (5 Di) by flow-cytometry using the ROS sensor DCF-DA. The ROS levels in untreated cells are shown in dotted lines for comparison. […] Numbers represent passage numbers at which ploidy was determined.
To determine if the elevated ROS and oxidative stress in autophagy-deficient cells contributes to cellular damage, the stress response without and with the ROS scavenger, N-acetyl cysteine (NAC) was examined. […] To examine the role of increased ROS levels and oxidative stress on genomic instability, the DNA content of early passage diploid beclin1^+/+, and autophagy-deficient beclin1^+/− iBMK cells without and with NAC by flow-cytometry were monitored. beclin1^+/+ iBMK cells maintained diploidy after 40 passages and the presence of NAC had no effect. […]

[4] = tested on: Bcl-2 expressing beclin1^+/+ and beclin1^+/− iBMK cells; assay: MTT assays of sensitivity to ER stress and proteasome inhibition; details: MTT assay; increasing concentrations; tunicamycin 3 days, epoxomycin 2 days; normal growth conditions
Text: FIG. 3 illustrates the effects of autophagy defects in altering the stress response and sensitize cells to ER stress and proteasome inhibition. (A) Western blots showing levels of p62, ER chaperones, PDI and ubiquitin in Bcl-2 expressing beclin1^+/+, beclin1^+/−, atg5^+/+ and atg5^−/− iBMK cells following 5 or 7 days of metabolic stress, and 1 and 2 days of recovery. (B-D) Allelic loss of beclin1 sensitizes cells selectively to ER stress and proteasome inhibition. MTT assays showing sensitivity of Bcl-2 expressing beclin1^+/+ (Blue) and beclin1^+/− (Red) iBMK cells in response to increasing concentrations of (B) tunicamycin for 3 days, or (C) epoxomycin for 2 days, and (D) following 5 days of metabolic stress. Data are presented as mean±SD. (E) Autophagy deficiency causes mitochondrial damage. […]
Since autophagy defects indicated an elevated demand for protein folding, the sensitivity of beclin1 cells to pharmacological induction of ER stress was investigated. […] Degradation of unfolded proteins via the proteasome pathway and ameliorates ER stress and to investigate if autophagy deficiency also elevated the burden on the ubiquitin-proteasome system, the sensitivity to the proteasome inhibitor epoxomycin was assessed. […]

CC(=O)N[C@@H](CS)C(=O)O [NAC, N-acetyl cysteine]
protective effect in beclin1^+/− cells relative to wild-type [1]: more profound | survival during metabolic stress ([1]; beclin1^+/+ and beclin1^+/− cells): partially rescues the susceptibility to metabolic stress and recovery; also recorded: improved survival | p62 accumulation during metabolic stress ([2]; NAC 1 mM, beclin1^+/− iBMK cells): decreased p62 accumulation | p62 accumulation in autophagy-deficient cells ([2]; beclin1^+/− and atg5^−/− cells, 7 days of metabolic stress followed by 1 day recovery, with NAC): suppresses p62 accumulation | effect on maintenance of diploidy ([3]; beclin1^+/+ iBMK cells, 40 passages): had no effect | progression to aneuploidy ([3]; beclin1^+/− cells, passages 18 and 39): limits progression to aneuploidy; also recorded: delayed this progression

Tunicamycin
sensitivity of beclin1^+/− cells compared to wild-type cells [4]: increased sensitivity
